Experiments:
A2058 cells = experiment: Cell viability assay (Cell-Titer-Glo) in A2058 cells; type: cell-based; settings: Homo sapiens, 48 hour treatment, test compounds 1 nM to 1 μM
Procedure: (§1) Cell viability assays were run using standard protocols known to those of skill in art. Cells were plated in 96 well plates at the density of 3,000-10,000 cells per well. Twenty four hours later, cells were treated with increasing concentration of test compounds (1 nM to 1 μM). After another 48 hour, cell survival was measured using Cell-Titer-Glo® reagent (Promega) following the protocol provided by the manufacture. The IC50 value was determined as the concentration of test compound that kills 50% of the cell population.
(§2) Cell viability data generated according to the protocol described above was generated for representative compounds in A2058 and U937 cells. The compounds shown in Table 1 were prepared by the methods described herein for structurally similar compounds. The reference compound was a synthetic diazonamide analog having the structure: […]

U937 cells = experiment: Cell viability assay (Cell-Titer-Glo) in U937 cells; type: cell-based; settings: test compounds 1 nM to 1 μM
Procedure: as §1, §2

[1] = Homo sapiens, U-937, 48 hour treatment

Row | SMILES | IC50 (A2058 cells) [nM] | IC50 (U937 cells; [1]) [nM] | IC50 (U937 cells; 48 hour treatment) [nM]
1 | CC(C)[C@H](O)C(=O)N[C@H]1Cc2ccc(O)c(c2)[C@]2(CNc3ccccc32)C2=C(c3nc(CO)co3)N=C(O2)[C@H](C(C)C)NC1=O (single isomer, unassigned) [Compound 102] | 492 | 225 | 
2 | CC(C)[C@H](O)C(=O)NC1Cc2ccc3c(c2)C2(C4=C(c5nc(COC(=O)C(C)(C)C)co5)N=C(O4)[C@H](C(C)C)NC1=O)c1ccccc1N[C@H]2O3 (stereo partly shown) [Compound 21] | 40 | 20 | 
3 | CC(=O)OCc1coc(-c2nc3oc2C24c5ccccc5N[C@H]2Oc2ccc(cc24)C[C@H](NC(=O)[C@@H](O)C(C)C)C(=O)N[C@H]3C(C)C)n1 (stereo partly shown) [Compound 22] | 52 | 19 | 
4 | CC(C)[C@H](O)C(=O)NC1Cc2ccc3c(c2)C2(C4=C(c5nc(COC=O)co5)N=C(O4)[C@H](C(C)C)NC1=O)c1ccccc1N[C@H]2O3 (stereo partly shown) [Compound 23] | 57 | 21 | 
5 | COC(=O)OCc1coc(-c2nc3oc2C24c5ccccc5N[C@H]2Oc2ccc(cc24)CC(NC(=O)[C@@H](O)C(C)C)C(=O)N[C@H]3C(C)C)n1 (stereo partly shown) [Compound 24] | 26 | 19.7 | 
6 | CC(C)[C@H](O)C(=O)N[C@H]1Cc2ccc3c(c2)C2(C4=C(c5nc(COP(=O)(O)O)co5)N=C(O4)[C@H](C(C)C)NC1=O)c1ccccc1N[C@H]2O3 (stereo partly shown) [Compound 25] | 70.8 | 36.9 | 
7 | COC(=O)OCc1coc(-c2nc3oc2C24c5ccccc5N[C@H]2Oc2ccc(cc24)CC(NC(=O)[C@@H](O)C(C)C)C(=O)N[C@H]3C(C)(C)C)n1 (stereo partly shown) [Compound 26] | 3.33 | 2.88 | 
8 | CC(C)[C@@H]1NC(=O)C(NC(=O)[C@@H](O)C(C)(C)C)Cc2ccc3c(c2)C2(C4=C(c5nc(CO)co5)N=C1O4)c1ccccc1N[C@H]2O3 (stereo partly shown) [Compound 27] | 112 | 98 | 
9 | CC(C)C[C@H](O)C(=O)N[C@H]1Cc2ccc3c(c2)C2(C4=C(c5nc(CO)co5)N=C(O4)[C@H](C(C)C)NC1=O)c1ccccc1N[C@H]2O3 (stereo partly shown) [Compound 28] | 143 | 112 | 
10 | CC(O)c1coc(-c2nc3oc2C24c5ccccc5N[C@H]2Oc2ccc(cc24)C[C@H](NC(=O)[C@@H](O)C(C)C)C(=O)N[C@H]3C(C)C)n1 (stereo partly shown) [Compound 29] | 119 | 59 | 
11 | CC(=O)c1coc(-c2nc3oc2C24c5ccccc5N[C@H]2Oc2ccc(cc24)C[C@H](NC(=O)[C@@H](O)C(C)C)C(=O)N[C@H]3C(C)C)n1 (stereo partly shown) [Compound 30] | 60 | 13 | 
12 | CC(C)[C@H](O)C(=O)N[C@H]1Cc2ccc3c(c2)C2(C4=C(c5nc(C(C)(C)O)co5)N=C(O4)[C@H](C(C)C)NC1=O)c1ccccc1N[C@H]2O3 (stereo partly shown) [Compound 31] | 602 | 259 | 
13 | CNCc1coc(-c2nc3oc2C24c5ccccc5N[C@H]2Oc2ccc(cc24)C[C@H](NC(=O)[C@@H](O)C(C)C)C(=O)N[C@H]3C(C)C)n1 (stereo partly shown) [Compound 32] | > 1000 | > 1000 | 
14 | CC(C)[C@H](O)C(=O)N[C@H]1Cc2ccc3c(c2)C2(C4=C(c5nc(CN)co5)N=C(O4)[C@H](C(C)C)NC1=O)c1ccccc1N[C@H]2O3 (stereo partly shown) [Compound 33] | > 1000 | > 1000 | 
15 | COC(=O)NCc1coc(-c2nc3oc2C24c5ccccc5N[C@H]2Oc2ccc(cc24)C[C@H](NC(=O)[C@@H](O)C(C)C)C(=O)N[C@H]3C(C)C)n1 (stereo partly shown) [Compound 34] | 149 | 134 | 
16 | CC(C)[C@H](O)C(=O)NC1Cc2ccc3c(c2)C2(C4=C(c5nc(CNS(C)(=O)=O)co5)N=C(O4)[C@H](C(C)C)NC1=O)c1ccccc1N[C@H]2O3 (stereo partly shown) [Compound 35] | 151 | 198 | 
17 | CC(C)[C@H](O)C(=O)N[C@H]1Cc2ccc3c(c2)C2(C4=C(c5nc(CNS(=O)(=O)c6ccccc6)co5)N=C(O4)[C@H](C(C)C)NC1=O)c1ccccc1N[C@H]2O3 (stereo partly shown) [Compound 36] | 194 | 209 | 
18 | COC(=O)Nc1coc(-c2nc3oc2C24c5ccccc5N[C@H]2Oc2ccc(cc24)CC(NC(=O)[C@@H](O)C(C)C)C(=O)N[C@H]3C(C)C)n1 (stereo partly shown) [Compound 37] | 235 | 178 | 
19 | CC(=O)Nc1oc(-c2nc3oc2C24c5ccccc5N[C@H]2Oc2ccc(cc24)CC(NC(=O)[C@@H](O)C(C)C)C(=O)N[C@H]3C(C)C)nc1C#N (stereo partly shown) [Compound 38] | > 1000 | > 1000 | 
20 | CC(C)[C@H](O)C(=O)N[C@H]1Cc2ccc3c(c2)C2(C4=C(c5nc(C#N)co5)N=C(O4)[C@H](C(C)C)NC1=O)c1ccccc1N[C@H]2O3 (stereo partly shown) [Compound 39] | 23 | 71 | 
21 | Cc1oc(-c2nc3oc2[C@@]24c5ccccc5NC2Oc2ccc(cc24)CC(NC(=O)[C@@H](O)C(C)C)C(=O)N[C@H]3C(C)C)nc1C#N (stereo partly shown) [Compound 40] | 182 | 210 | 
22 | CC(C)[C@H](O)C(=O)NC1Cc2ccc3c(c2)C2(C4=C(c5nc(C6OCCCO6)co5)N=C(O4)[C@H](C(C)C)NC1=O)c1ccccc1N[C@H]2O3 (stereo partly shown) [Compound 41] | 65 | 65 | 

Row | SMILES | IC50 (A2058 cells) [nM] | IC50 (U937 cells; [1]) [nM] | IC50 (U937 cells; 48 hour treatment) [nM]
23 | CC(C)[C@H](O)C(=O)NC1Cc2ccc3c(c2)C2(C4=C(c5nc(C6OCCO6)co5)N=C(O4)[C@H](C(C)C)NC1=O)c1ccccc1N[C@H]2O3 (stereo partly shown) [Compound 42] | 49 | 43 | 
24 | CC(C)[C@H](O)C(=O)N[C@H]1Cc2ccc3c(c2)C2(C4=C(c5nc(C6=NCCO6)co5)N=C(O4)[C@H](C(C)C)NC1=O)c1ccccc1N[C@H]2O3 (stereo partly shown) [Compound 43] | 22 | 19 | 
25 | CC(C)[C@H](O)C(=O)NC1Cc2ccc3c(c2)[C@]2(C4=C(c5nc(-c6nnn[nH]6)co5)N=C(O4)[C@H](C(C)C)NC1=O)c1ccccc1NC2O3 (stereo partly shown) [Compound 44] | > 1000 | > 1000 | 
26 | CC(C)[C@H](O)C(=O)NC1Cc2ccc3c(c2)[C@]2(C4=C(c5nc(-c6ncc[nH]6)co5)N=C(O4)[C@H](C(C)C)NC1=O)c1ccccc1NC2O3 (stereo partly shown) [Compound 45] | 589 | 318 | 
27 | Cc1nc(-c2coc(-c3nc4oc3[C@@]35c6ccccc6NC3Oc3ccc(cc35)C[C@H](NC(=O)[C@@H](O)C(C)C)C(=O)N[C@H]4C(C)C)n2)no1 (stereo partly shown) [Compound 46] | 49 | 76.9 | 
28 | Cc1noc(-c2coc(-c3nc4oc3[C@@]35c6ccccc6NC3Oc3ccc(cc35)C[C@H](NC(=O)[C@@H](O)C(C)C)C(=O)N[C@H]4C(C)(C)C)n2)n1 (stereo partly shown) [Compound 47] | 7.06 | 14.2 | 
29 | Cc1nnc(-c2coc(-c3nc4oc3[C@@]35c6ccccc6NC3Oc3ccc(cc35)C[C@H](NC(=O)[C@@H](O)C(C)C)C(=O)N[C@H]4C(C)(C)C)n2)o1 (stereo partly shown) [Compound 48] | 6.11 | 6.34 | 
30 | COC(=O)c1coc(-c2nc3oc2C24c5ccccc5NC2Oc2ccc(cc24)C[C@H](NC(=O)[C@@H](O)C(C)C)C(=O)N[C@H]3CC(C)C)n1 (stereo partly shown) [Compound 49] | > 1000 | 223 | 
31 | COC(=O)c1coc(-c2nc3oc2C24c5ccccc5NC2Oc2ccc(cc24)C[C@H](NC(=O)[C@@H](O)C(C)C)C(=O)N[C@H]3C(C)(C)C)n1 (stereo partly shown) [Compound 50] | 53 | 12 | 
32 | COC(=O)c1coc(-c2nc3oc2C24c5ccccc5NC2Oc2ccc(cc24)C[C@H](NC(=O)[C@@H](O)C(C)C)C(=O)N[C@H]3Cc2ccccc2)n1 (stereo partly shown) [Compound 51] | > 1000 | > 1000 | 
33 | CCC[C@@H]1NC(=O)[C@@H](NC(=O)[C@@H](O)C(C)C)Cc2ccc3c(c2)C2(C4=C(c5nc(C(=O)OC)co5)N=C1O4)c1ccccc1NC2O3 (stereo partly shown) [Compound 52] | 257 | 71 | 
34 | COC(=O)c1coc(-c2nc3oc2[C@@]24c5ccccc5NC2Oc2ccc(cc24)C[C@H](NC(=O)[C@@H](O)C(C)C)C(=O)NC3)n1 (stereo partly shown) [Compound 53] | > 1000 | > 1000 | 
35 | COC(=O)c1coc(-c2nc3oc2[C@@]24c5ccccc5NC2Oc2ccc(cc24)C[C@H](NC(=O)[C@@H](O)C(C)C)C2=NC3CO2)n1 (stereo partly shown) [Compound 54] | > 1000 | > 1000 | 
36 | CC(C)[C@H](O)C(=O)N[C@H]1Cc2ccc3c(c2)[C@]2(C4=C(c5nc(CO)co5)N=C(O4)[C@H](C)NC1=O)c1ccccc1NC2O3 (stereo partly shown) [Compound 55] | > 1000 | > 1000 | 
37 | COC(=O)c1coc(-c2nc3oc2[C@@]24c5ccccc5NC2Oc2ccc(cc24)C[C@H](NC(=O)[C@@H](O)C(C)C)C(=O)N[C@H]3C)n1 (stereo partly shown) [Compound 56] | 968 | 588 | 
38 | CC(C)[C@H](O)C(=O)N[C@H]1Cc2ccc3c(c2)[C@]2(C4=C(c5nc(CO)co5)N=C(O4)[C@H](C(C)(C)C)NC1=O)c1ccccc1N[C@@H]2O3 [Compound 57] | 8.3 | 5.3 | 
39 | COC(=O)c1coc(-c2nc3oc2[C@@]24c5ccccc5NC2Oc2ccc(cc24)C[C@H](NC(=O)[C@@H](O)C(C)C)C(=O)N[C@H]3C2CCCCC2)n1 (stereo partly shown) [Compound 58] | > 1000 | 445 | 
40 | COC(=O)c1coc(-c2nc3oc2[C@]24c5ccccc5NC2Oc2ccc(cc24)C[C@H](NC(=O)[C@@H](O)C(C)C)C(=O)N[C@H]3C(C)(C)C)n1 (stereo partly shown) [Compound 59] |  |  | 69
41 | CC(C)[C@H](O)C(=O)N[C@H]1Cc2ccc3c(c2)[C@]2(C4=C(c5nc(CO)co5)N=C(O4)[C@H](C4CCCCC4)NC1=O)c1ccccc1NC2O3 (stereo partly shown) [Compound 60] | > 1000 | 795 | 
42 | COC(=O)c1coc(-c2coc([C@@H]3CCCN3C(=O)[C@H](Cc3ccc4c(c3)[C@@H]3c5ccccc5NC3O4)NC(=O)[C@@H](O)C(C)C)n2)n1 (stereo partly shown) [Compound 61] | > 1000 | 761 | 
43 | CC(C)[C@H](O)C(=O)N[C@H]1Cc2ccc3c(c2)C2(C4=C(c5nc(C#N)co5)N=C(O4)[C@H](C(C)(C)C)NC1=O)c1ccccc1N[C@H]2O3 (stereo partly shown) [Compound 62] | 2.54 | 15.6 | 
